{"source": "paper PMC7714403", "about": "(JCI Insight, 2020)", "key": {"PHKg2": {"target": "PHKg2 (Homo sapiens, UniProt P15735)", "sequence (P15735 whole entry)": "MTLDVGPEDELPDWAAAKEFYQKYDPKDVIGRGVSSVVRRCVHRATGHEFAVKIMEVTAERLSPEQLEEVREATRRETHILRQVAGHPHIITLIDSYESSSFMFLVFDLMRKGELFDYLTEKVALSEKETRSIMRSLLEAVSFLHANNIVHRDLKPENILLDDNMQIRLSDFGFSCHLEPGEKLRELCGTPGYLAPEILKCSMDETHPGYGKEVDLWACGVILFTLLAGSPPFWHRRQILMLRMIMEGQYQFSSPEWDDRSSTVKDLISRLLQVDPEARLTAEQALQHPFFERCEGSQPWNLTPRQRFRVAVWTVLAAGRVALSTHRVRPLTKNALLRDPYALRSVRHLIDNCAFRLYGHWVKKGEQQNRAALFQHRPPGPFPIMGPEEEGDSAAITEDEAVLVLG", "assay": "KiNativ, OCI cells live cell", "format": "cell-based", "conditions": "2 h, labeling site Lys1, peptide […]"}, "[1]": {"test_system": "murine FLT3-ITD+/– IDH2-R140Q+/– AML cells", "assay": "Primary transplantation model of murine AML cells", "format": "in vivo, NSG mice", "protocol": "Engraftment and growth of leukemic cells were monitored by noninvasive bioluminescence imaging in cell line xenograft models, as previously done ([47]). Details on the cell engraftment and dosing in mouse models are provided in the Supplemental Methods.\nLuc+ or MOLM13-Res -Luc+ cells, 0.5 million OCI-AML3 -Luc+ cells, and 10,000 Ba/F3-FLT3-ITD/F691L-GFP+ cells. Weekly tumor engraftment of cell line xenograft models were assessed after injection of D-luciferin (150mg/kg i.p.; Gold Biotechnology, Inc, St. Louis, MO) on Xenogen IVIS-200 imaging system (Perkin Elmer, Waltham, MA) or GFP monitoring by peripheral blood via BD LSR II flow cytometer (BD Biosciences, San Jose, CA). Signal intensity was analyzed using Living Image Software (PerkinElmer) or FlowJo v10.0.08 software (FlowJo, LLC, Ashland, OR). Mice were randomized to treatment groups based on signal intensity and leukemia burden. Drug treatments were started on days 3, 7, or 13 after cell injection in OCI-AML3, MOLM13, and MOLM13-Res xenografts, respectively. In murine AML transplantation model, 1 million FLT3-ITD+/-/IDH2-R140Q+/- splenocytes (in house colony) were intravenously injected in male NSG mice. […]\nAt indicated time points, cells were collected and washed with PBS. CD11b expression was measured using anti-CD11b -APC antibody (BioLegend, San Diego, CA). […] CD11b expression and apoptosis were measured by BD LSR II flow cytometer. […]"}, "AURKA": {"target": "T1, AURKA (Homo sapiens, UniProt O14965)", "T1 construct": "purchased Eurofins DiscoverX", "T1 sequence (O14965 whole entry)": "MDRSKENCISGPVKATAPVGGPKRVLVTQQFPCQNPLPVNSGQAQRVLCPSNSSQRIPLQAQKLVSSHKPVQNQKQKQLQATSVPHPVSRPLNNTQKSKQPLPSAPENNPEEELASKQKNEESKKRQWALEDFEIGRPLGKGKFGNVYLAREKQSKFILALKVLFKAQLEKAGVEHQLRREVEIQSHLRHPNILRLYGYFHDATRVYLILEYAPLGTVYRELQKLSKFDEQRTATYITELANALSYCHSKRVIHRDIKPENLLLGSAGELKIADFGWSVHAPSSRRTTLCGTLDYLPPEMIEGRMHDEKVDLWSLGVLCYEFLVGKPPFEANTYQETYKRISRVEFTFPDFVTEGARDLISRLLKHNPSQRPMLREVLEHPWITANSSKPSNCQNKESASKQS", "assay": "KdELECT binding assay"}, "CaMK1a": {"target": "CaMK1a (Homo sapiens, UniProt Q14012)", "sequence (Q14012 whole entry)": "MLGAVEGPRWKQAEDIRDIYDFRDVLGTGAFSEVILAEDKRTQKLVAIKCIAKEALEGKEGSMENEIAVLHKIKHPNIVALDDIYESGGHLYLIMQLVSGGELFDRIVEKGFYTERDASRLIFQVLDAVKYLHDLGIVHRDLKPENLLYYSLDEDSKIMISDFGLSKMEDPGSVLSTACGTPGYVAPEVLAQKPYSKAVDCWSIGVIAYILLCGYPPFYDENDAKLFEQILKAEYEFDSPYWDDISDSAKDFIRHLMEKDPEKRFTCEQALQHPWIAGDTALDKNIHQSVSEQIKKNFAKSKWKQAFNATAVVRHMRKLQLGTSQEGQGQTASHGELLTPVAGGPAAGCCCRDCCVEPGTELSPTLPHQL", "assay": "KiNativ, OCI cells live cell", "format": "cell-based", "conditions": "2 h"}, "FLT3-ITD and TKD mutants": {"target": "FLT3-ITD and TKD mutants", "assay": "KdELECT binding assay", "conditions": "range over FLT3-ITD and TKD mutants"}, "NEK9": {"target": "T2, NEK9 (Homo sapiens, UniProt Q8TD19)", "T2 sequence (Q8TD19 1-979)": "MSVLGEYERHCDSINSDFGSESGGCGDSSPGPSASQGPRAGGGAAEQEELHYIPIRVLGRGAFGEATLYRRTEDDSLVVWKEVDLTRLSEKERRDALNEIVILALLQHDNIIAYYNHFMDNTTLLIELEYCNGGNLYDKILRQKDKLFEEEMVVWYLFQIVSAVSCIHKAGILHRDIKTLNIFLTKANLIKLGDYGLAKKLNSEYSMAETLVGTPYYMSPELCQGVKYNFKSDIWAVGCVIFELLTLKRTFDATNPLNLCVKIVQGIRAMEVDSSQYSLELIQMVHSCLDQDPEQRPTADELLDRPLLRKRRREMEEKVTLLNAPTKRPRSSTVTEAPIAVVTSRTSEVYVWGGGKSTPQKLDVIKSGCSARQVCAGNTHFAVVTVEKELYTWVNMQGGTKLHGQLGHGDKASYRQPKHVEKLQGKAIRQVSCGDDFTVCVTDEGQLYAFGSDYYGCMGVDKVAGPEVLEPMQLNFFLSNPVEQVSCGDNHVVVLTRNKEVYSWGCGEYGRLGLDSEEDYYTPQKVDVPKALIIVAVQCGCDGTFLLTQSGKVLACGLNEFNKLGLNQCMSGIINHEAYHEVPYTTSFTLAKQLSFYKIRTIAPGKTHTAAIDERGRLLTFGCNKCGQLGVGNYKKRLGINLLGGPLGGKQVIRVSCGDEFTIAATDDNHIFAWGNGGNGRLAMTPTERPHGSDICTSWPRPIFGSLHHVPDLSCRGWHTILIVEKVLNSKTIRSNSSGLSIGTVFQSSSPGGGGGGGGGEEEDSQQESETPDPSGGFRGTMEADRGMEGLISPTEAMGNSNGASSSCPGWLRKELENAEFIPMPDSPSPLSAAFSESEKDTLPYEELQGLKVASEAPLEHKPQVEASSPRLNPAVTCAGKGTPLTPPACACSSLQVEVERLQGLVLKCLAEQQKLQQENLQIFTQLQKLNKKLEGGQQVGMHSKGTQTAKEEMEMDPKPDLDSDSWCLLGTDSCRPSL", "assay": "KiNativ, MOLM13 live cells", "format": "cell-based", "conditions": "MOLM-13, 2 h, 100 nM", "protocol": "(§1) Samples were analyzed by KiNativ in situ kinase profiling by ActivX Biosciences."}, "Erk5": {"target": "Erk5 (Homo sapiens, UniProt Q13164)", "sequence (Q13164 whole entry)": "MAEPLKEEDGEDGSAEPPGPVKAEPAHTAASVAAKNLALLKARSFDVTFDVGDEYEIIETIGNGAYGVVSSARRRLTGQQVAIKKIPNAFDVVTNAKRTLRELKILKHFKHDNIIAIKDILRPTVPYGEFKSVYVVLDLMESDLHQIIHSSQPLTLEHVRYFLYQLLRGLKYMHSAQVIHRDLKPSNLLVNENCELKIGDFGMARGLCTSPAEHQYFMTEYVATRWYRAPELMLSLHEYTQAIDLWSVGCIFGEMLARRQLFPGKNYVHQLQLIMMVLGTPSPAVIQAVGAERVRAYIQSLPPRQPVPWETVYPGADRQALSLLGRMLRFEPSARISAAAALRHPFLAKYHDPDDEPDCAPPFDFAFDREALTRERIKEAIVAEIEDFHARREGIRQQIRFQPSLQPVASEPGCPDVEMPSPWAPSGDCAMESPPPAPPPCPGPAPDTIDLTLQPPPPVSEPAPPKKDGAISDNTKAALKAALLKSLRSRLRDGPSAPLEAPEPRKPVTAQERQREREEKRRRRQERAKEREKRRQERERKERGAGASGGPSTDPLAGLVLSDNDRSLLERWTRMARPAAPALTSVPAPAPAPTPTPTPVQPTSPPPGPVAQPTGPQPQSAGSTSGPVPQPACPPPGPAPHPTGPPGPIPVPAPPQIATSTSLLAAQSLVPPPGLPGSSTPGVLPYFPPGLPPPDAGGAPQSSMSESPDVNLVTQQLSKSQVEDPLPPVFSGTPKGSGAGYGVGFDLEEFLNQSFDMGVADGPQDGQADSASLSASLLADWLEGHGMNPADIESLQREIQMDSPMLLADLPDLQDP", "assay": "KiNativ, MOLM13 live cells", "format": "cell-based", "conditions": "MOLM-13; 100 nM, 2 hours; Lys2; read-out: Inhibition vs DMSO", "protocol": "as §1"}, "DGKA": {"target": "DGKA (Homo sapiens, UniProt P23743)", "sequence (P23743 whole entry)": "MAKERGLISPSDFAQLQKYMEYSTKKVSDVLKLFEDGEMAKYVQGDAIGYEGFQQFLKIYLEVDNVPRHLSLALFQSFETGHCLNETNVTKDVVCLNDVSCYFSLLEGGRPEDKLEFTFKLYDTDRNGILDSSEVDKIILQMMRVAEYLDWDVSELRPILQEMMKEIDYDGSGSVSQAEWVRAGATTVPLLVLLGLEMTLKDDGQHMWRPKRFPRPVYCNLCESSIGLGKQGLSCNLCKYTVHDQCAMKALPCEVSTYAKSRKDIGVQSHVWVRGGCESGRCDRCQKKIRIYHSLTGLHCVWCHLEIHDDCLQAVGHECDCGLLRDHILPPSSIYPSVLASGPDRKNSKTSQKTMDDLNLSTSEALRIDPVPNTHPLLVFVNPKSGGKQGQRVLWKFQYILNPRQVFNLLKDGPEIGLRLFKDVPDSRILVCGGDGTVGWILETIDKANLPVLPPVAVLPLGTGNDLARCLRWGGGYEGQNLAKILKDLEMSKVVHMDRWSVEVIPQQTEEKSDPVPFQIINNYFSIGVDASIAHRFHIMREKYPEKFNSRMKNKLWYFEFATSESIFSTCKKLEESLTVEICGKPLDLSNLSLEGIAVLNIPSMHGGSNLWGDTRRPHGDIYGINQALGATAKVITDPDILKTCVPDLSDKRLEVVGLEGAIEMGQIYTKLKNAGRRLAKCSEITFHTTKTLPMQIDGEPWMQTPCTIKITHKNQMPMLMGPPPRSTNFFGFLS", "assay": "KiNativ, MOLM13 live cells", "format": "cell-based", "conditions": "MOLM-13; 100 nM, 2 hours; ATP; read-out: Inhibition vs DMSO", "protocol": "as §1"}, "PIK3C3": {"target": "PIK3C3 (Homo sapiens, UniProt Q8NEB9)", "sequence (Q8NEB9 whole entry)": "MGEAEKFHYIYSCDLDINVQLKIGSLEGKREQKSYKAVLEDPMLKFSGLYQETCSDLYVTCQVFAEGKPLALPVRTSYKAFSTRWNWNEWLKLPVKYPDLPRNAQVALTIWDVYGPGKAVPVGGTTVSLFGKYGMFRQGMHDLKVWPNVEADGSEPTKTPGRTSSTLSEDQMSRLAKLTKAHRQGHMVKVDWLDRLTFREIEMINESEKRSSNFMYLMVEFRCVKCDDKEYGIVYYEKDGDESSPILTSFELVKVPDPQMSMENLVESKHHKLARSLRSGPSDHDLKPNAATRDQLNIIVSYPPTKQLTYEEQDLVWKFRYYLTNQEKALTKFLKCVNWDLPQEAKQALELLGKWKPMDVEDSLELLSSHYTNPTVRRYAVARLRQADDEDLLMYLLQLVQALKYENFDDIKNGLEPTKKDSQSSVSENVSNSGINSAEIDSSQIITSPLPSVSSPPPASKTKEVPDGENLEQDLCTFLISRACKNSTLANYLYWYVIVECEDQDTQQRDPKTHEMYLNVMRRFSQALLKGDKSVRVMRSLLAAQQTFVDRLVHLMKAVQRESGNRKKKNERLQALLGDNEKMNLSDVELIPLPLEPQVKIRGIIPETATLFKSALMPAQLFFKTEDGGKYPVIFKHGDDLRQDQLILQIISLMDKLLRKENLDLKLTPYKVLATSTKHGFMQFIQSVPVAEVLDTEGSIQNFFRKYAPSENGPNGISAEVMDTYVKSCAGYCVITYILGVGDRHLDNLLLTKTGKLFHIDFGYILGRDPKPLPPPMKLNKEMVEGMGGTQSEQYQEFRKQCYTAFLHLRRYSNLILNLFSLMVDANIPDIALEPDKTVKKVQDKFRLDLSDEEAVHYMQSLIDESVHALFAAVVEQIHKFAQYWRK", "assay": "KiNativ, MOLM13 live cells", "format": "cell-based", "conditions": "MOLM-13, 2 h, 100 nM, ATP, read-out: Inhibition vs DMSO", "protocol": "as §1"}, "SNRK": {"target": "SNRK (Homo sapiens, UniProt Q9NRH2)", "sequence (Q9NRH2 whole entry)": "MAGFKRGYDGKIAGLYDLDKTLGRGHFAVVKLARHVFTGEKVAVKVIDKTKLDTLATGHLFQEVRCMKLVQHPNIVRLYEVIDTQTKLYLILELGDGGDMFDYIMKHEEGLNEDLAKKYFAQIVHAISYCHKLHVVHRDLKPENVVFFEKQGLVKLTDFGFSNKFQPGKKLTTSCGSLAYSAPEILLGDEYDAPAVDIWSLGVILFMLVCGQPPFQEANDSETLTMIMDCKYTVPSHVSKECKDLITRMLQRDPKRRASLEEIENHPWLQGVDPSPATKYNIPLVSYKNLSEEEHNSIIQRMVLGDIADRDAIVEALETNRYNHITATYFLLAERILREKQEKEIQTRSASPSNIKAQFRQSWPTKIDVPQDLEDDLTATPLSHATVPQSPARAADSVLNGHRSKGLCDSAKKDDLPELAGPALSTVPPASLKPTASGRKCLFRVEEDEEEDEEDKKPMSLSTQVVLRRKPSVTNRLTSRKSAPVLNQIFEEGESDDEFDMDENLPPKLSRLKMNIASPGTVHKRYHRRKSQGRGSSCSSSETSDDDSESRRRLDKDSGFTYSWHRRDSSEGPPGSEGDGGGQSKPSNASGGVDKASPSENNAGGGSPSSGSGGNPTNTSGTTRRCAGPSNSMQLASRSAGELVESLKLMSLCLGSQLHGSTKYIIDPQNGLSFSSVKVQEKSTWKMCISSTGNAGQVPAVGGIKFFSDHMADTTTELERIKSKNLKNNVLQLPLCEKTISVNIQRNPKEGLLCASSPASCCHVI", "assay": "KiNativ, OCI cells live cell", "format": "cell-based", "conditions": "2 h, labeling site Lys1, peptide […]"}, "MAP3K5": {"target": "MAP3K5 (Homo sapiens, UniProt Q99683)", "assay": "KiNativ, OCI cells live cell", "format": "cell-based", "conditions": "2 h, labeling site Lys2, peptide […]"}}, "note": "Like-named read-outs stand apart in the source and are kept apart here."}
{"smiles": "CN1CCN(Cc2ccc(Nc3ncc(Cl)c(Nc4ccccc4S(=O)(=O)N(C)C)n3)cc2)CC1", "note": "[TP-0903]", "values": [{"measurement": "inhibition at 0.1 µM", "setting": "PHKg2", "value": -5.7, "unit": "%"}, {"measurement": "Spleen weight at study endpoint (mean ± SD)", "setting": "[1]; 40 mg/kg once daily", "value": "50 ± 13", "unit": "mg"}, {"measurement": "Survival prolonged compared with vehicle", "setting": "[1]; 40 mg/kg once daily up to 6 weeks", "value": 9, "unit": "days"}, {"measurement": "Kd", "setting": "AURKA", "value": "< 5", "unit": "nM"}, {"measurement": "inhibition at 0.1 µM", "setting": "CaMK1a; labeling site Lys1, peptide LVAIKCIAK", "value": -6.6, "unit": "%"}, {"measurement": "inhibition at 0.1 µM", "setting": "CaMK1a; labeling site Lys2, peptide DLKPENLLYYSLDEDSK", "value": -19.1, "unit": "%"}, {"measurement": "Kd", "setting": "FLT3-ITD and TKD mutants", "value": "0.79 to 5.6", "unit": "nM"}, {"measurement": "inhibition at 0.1 µM", "setting": "NEK9; Activation Loop, read-out: Inhibition vs DMSO", "value": 45.7, "unit": "%"}, {"measurement": "inhibition at 0.1 µM", "setting": "NEK9; Lys1, read-out: Inhibition vs DMSO", "value": 48, "unit": "%"}, {"measurement": "inhibition at 0.1 µM", "setting": "NEK9; Lys2, read-out: Inhibition vs DMSO", "value": 48.8, "unit": "%"}, {"measurement": "inhibition at 0.1 µM", "setting": "Erk5", "value": 84.9, "unit": "%"}, {"measurement": "inhibition at 0.1 µM", "setting": "DGKA", "value": -9.4, "unit": "%"}, {"measurement": "inhibition at 0.1 µM", "setting": "PIK3C3; TEDGGKYPVIFKHGDDLR", "value": -23.9, "unit": "%"}, {"measurement": "inhibition at 0.1 µM", "setting": "PIK3C3; TEDGGKYPVIFKHGDDLRQDQLILQIISLMDK", "value": 2.6, "unit": "%"}, {"measurement": "inhibition at 0.1 µM", "setting": "SNRK", "value": 1, "unit": "%"}, {"measurement": "inhibition at 0.1 µM", "setting": "MAP3K5", "value": -1.8, "unit": "%"}]}
